Target: T1, UCHL1 (Homo sapiens, UniProt P09936)
T1 construct: made in house; host or cells: HEK293T
T1 sequence (P09936 1-223): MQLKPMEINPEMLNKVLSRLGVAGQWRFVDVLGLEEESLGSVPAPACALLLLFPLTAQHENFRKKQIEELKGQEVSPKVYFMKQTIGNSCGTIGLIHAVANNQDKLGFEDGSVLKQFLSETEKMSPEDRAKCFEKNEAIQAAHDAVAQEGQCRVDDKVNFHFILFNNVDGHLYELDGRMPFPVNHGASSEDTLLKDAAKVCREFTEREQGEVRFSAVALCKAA
Assay: UCHL1 biochemical IC50 assay (fluorescence polarisation)
Conditions: 30 min enzyme/compound pre-incubation at room temp, read after 2 hr incubation, read-out: Activity range (UCHL1 biochemical IC50 assay)
Procedure, shortened: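 FLAG-UCHL1 purified from transfected HEK293T cells was preincubated 30 min at room temperature with compound (8 points, 100–0.03 μM final) in Tris pH 7.5 buffer with Tween 20, BSA and beta-mercaptoethanol. Reaction started with 50 nM TAMRA-peptide–ubiquitin isopeptide substrate; fluorescence polarisation (ex 540/em 590 nm) read at once and after 2 h.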

N#CN1CC[C@H](C(=O)Nc2cn3cc(C(F)(F)F)ccc3n2)C1 [Example 270, (S)-1-cyano-N-(6-(trifluoromethyl)imidazo[1,2-a]pyridin-2-yl)pyrrolidine-3-carboxamide] and N#CN1CC[C@H](C(=O)Nc2cn3cc(-c4cnco4)ccc3n2)C1 [Example 276, (S)-1-cyano-N-(6-(oxazol-5-yl)imidazo[1 ,2-a]pyridin-2-yl)pyrrolidine-3-carboxamide] cannot be ordered by IC50: less than 1000 nM for the first, less than 1000 nM for the second.

Compared with Cc1cccc(-c2cc(NC(=O)[C@H]3CCN(C#N)C3)nn2C)c1 [Example 271, (S)-1-cyano-N-(1-methyl-5-(m-tolyl)-1H-pyrazol-3-yl)pyrrolidine-3-carboxamide], N#CN1CC[C@H](C(=O)Nc2cc(-c3ccccc3)cnn2)C1 [Example 275, (S)-1-cyano-N-(5-phenylpyridazin-3-yl)pyrrolidine-3-carboxamide] is higher in IC50: less than 1000 nM for the first, 1000 to 10000 nM for the second.

N#CN1CC[C@H](C(=O)Nc2cnc3ccccc3c2)C1 [Example 272, (S)-1-cyano-N-(quinolin-3-yl)pyrrolidine-3-carboxamide] and N#CN1CC[C@H](C(=O)Nc2cc(-c3ccncc3)ncn2)C1 [Example 274, (S)-1-cyano-N-(6-(pyridin-4-yl)pyrimidin-4-yl)pyrrolidine-3-carboxamide] fall in the same range of IC50: 1000 to 10000 nM for the first, 1000 to 10000 nM for the second.

Compared with CC(C)(C)c1ccnc(NC(=O)[C@H]2CCN(C#N)C2)c1 [Example 273, (S)-N-(4-(tert-butyl)pyridin-2-yl)-1-cyanopyrrolidine-3-carboxamide], Cc1nn(C)cc1-c1ccc2nc(NC(=O)[C@H]3CCN(C#N)C3)sc2c1 [Example 288, (S)-1-cyano-N-(6-(1,3-dimethyl-1H-pyrazol-4-yl)benzo[d]thiazol-2-yl)pyrrolidine-3-carboxamide] is lower in IC50: 1000 to 10000 nM for the first, less than 1000 nM for the second.

CC(C)S(=O)(=O)N1CCc2nc(NC(=O)[C@H]3CCN(C#N)C3)sc2CC1 [Example 277, (S)-1-cyano-N-(6-(isopropylsulfonyl)-5,6,7,8-tetrahydro-4H-thiazolo[4,5-d]azepin-2-yl)pyrrolidine-3-carboxamide] and Cc1noc(C)c1-c1ccc2nc(NC(=O)[C@H]3CCN(C#N)C3)sc2n1 [Example 286, (S)-1-cyano-N-(5-(3,5-dimethylisoxazol-4-yl)thiazolo[5,4-b]pyridin-2-yl)pyrrolidine-3-carboxamide] cannot be ordered by IC50: less than 1000 nM for the first, less than 1000 nM for the second.

COCCn1cc(-c2ccc(-n3cnc(NC(=O)[C@H]4CCN(C#N)C4)c3)cc2)cn1 [Example 278, (S)-1-cyano-N-(1-(4-(1-(2-methoxyethyl)-1H-pyrazol-4-yl)phenyl)-1H-imidazol-4-yl)pyrrolidine-3-carboxamide] and Cc1cccc(C)c1-c1ccc2nc(NC(=O)[C@H]3CCN(C#N)C3)sc2c1 [Example 287, (S)-1-cyano-N-(6-(2,6-dimethylphenyl)benzo[d]thiazol-2-yl)pyrrolidine-3-carboxamide] cannot be ordered by IC50: less than 1000 nM for the first, less than 1000 nM for the second.

Compared with N#CN1CC2CC2(C(=O)Nc2ncc(-c3ccccc3)s2)C1 (centres unmarked) [Example 279, 3-cyano-N-(5-phenylthiazol-2-yl)-3-azabicyclo[3.1.0]hexane-1-carboxamide], COC1(C(=O)Nc2ncc(-c3ccccc3)s2)CCN(C#N)C1 (centres unmarked) [Example 284, 1-cyano-3-methoxy-N-(5-phenylthiazol-2-yl)pyrrolidine-3-carboxamide] is lower in IC50: 1000 to 10000 nM for the first, less than 1000 nM for the second.

First: N#CN1CC(C(=O)Nc2ncc(-c3ccccc3)s2)C2CC21 (centres unmarked) [Example 280, 2-cyano-N-(5-phenylthiazol-2-yl)-2-azabicyclo[3.1.0]hexane-4-carboxamide]
Second: N#CN1C[C@@H](C(F)(F)F)[C@H](C(=O)Nc2ncc(-c3ccccc3)s2)C1 [Example 281, (3S, 4S)-1-cyano-N-(5-phenylthiazol-2-yl)-4-(trifluoromethyl)pyrrolidine-3-carboxamide]
The IC50 of the first is higher: 1000 to 10000 nM for the first, less than 1000 nM for the second.

Compound Cc1noc(C)c1-c1cnc2nc(NC(=O)[C@H]3CCN(C#N)C3)sc2c1 [Example 285, (S)-1-cyano-N-(6-(3,5-dimethylisoxazol-4-yl)thiazolo[4,5-b]pyridin-2-yl)pyrrolidine-3-carboxamide] has an IC50 of 1000 to 10000 nM.

From patent US11472798B2 (Mission Therapeutics Limited, priority 2014, dated 2022)
